Reference: patent US7507730B2, “Substituted pyrazolo[1,5-a]pyrimidines as potassium channel activators” (Bristol-Myers Squibb Company, priority 2005, dated 2009)

Target: Kv1.5 (Homo sapiens, UniProt P22460)
Assay: Kv1.5 inhibition assay (IKur inhibitor assay per cited references)
Format: cell-based
Details: for Kv1.5% inhibition / inhibition at 0.3 µM: at 0.3 μM; for IC50: read-out: Kv1.5 IC50
Description: Assays to determine the degree of activity of a compound as an IKur inhibitor are well known in the art and are described in references such as J. Gen. Physiol. Apr.; 101 (4):513-43, and Br. J. Pharmacol. 1995 May; 115(2):267-74.

Kv1.5, sequence (P22460 whole entry): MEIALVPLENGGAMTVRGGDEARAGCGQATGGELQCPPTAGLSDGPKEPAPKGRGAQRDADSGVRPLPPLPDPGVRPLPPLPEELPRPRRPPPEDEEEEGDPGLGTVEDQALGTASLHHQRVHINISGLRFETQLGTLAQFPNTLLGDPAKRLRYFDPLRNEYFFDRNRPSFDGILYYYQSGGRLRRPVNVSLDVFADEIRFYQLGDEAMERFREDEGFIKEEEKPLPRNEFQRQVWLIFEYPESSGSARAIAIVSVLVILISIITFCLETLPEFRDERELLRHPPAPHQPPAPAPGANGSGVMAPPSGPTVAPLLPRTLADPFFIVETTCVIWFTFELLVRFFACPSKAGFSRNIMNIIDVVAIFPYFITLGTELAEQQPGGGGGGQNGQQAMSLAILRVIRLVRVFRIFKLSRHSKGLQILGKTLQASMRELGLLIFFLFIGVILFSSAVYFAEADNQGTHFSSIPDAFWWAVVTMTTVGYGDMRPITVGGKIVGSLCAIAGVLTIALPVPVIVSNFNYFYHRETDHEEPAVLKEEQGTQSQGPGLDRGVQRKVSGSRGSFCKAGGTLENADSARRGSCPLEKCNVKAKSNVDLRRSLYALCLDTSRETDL

| SMILES | Kv1.5% inhibition | inhibition at 0.3 µM | other results |
| --- | --- | --- | --- |
| CC1=C(S(=O)(=O)c2ccc(C)cc2)C(c2ccc(Cl)cc2)n2nc(C(F)(F)F)cc2N1 (single isomer, unassigned) [Example 28 Isomer 2, 7-(4-Chlorophenyl)-5-methyl-6-tosyl-2-(trifluoromethyl)-4,7-dihydropyrazolo[1,5-a]pyrimidine] | 83.4% | – | – |
| COc1ccc(NS(=O)(=O)C2=C(C)Nc3cc(C)nn3C2c2ccc(Cl)c(Cl)c2)cc1 (racemic) [Example 37, 7-(3,4-Dichlorophenyl)-N-(4-methoxyphenyl)-2,5-dimethyl-4,7-dihydropyrazolo[1,5-a]pyrimidine-6-sulfonamide] | – | 25% | – |
| CC1=C(S(=O)(=O)c2ccccc2)C(c2ccc3c(c2)OCO3)n2nc(C)cc2N1 (racemic) [Example 6, 7-(Benzo[d][1,3]dioxol-5-yl)-2,5-dimethyl-6-(phenylsulfonyl)-4,7-dihydropyrazolo[1,5-a]pyrimidine] | – | 6.1% | – |
| COc1ccc(S(=O)(=O)C2=C(C)Nc3cc(C)nn3C2c2ccc(C)c(F)c2)cc1 (single isomer, unassigned) [Example 24 Isomer 1, 7-(3-Fluoro-4-methylphenyl)-6-(4-methoxyphenylsulfonyl)-2,5-dimethyl-4,7-dihydropyrazolo[1,5-a]pyrimidine] | – | – | IC50: 148 nM |
| COc1ccc(S(=O)(=O)C2=C(C)Nc3cc(C(F)(F)F)nn3C2c2ccc(C)c(F)c2)cc1 (single isomer, unassigned) [Example 32 Isomer 2, 7-(3-Fluoro-4-methylphenyl)-6-(4-methoxyphenylsulfonyl)-5-methyl-2-(trifluoromethyl)-4,7-dihydropyrazolo[1,5-a]pyrimidine] | 72.7% | – | – |
| CCCCS(=O)(=O)C1=C(C)Nc2cc(C(F)(F)F)nn2C1c1ccc(Cl)cc1 (single isomer, unassigned) [Example 30 Isomer 1, 6-(Butylsulfonyl)-7-(4-chlorophenyl)-5-methyl-2-(trifluoromethyl)-4,7-dihydropyrazolo[1,5-a]pyrimidine] | – | – | IC50: 210 nM |
| CC1=C(S(=O)(=O)c2ccccc2)C(c2ccc(N3CCCC3)cc2)n2nc(C(F)(F)F)cc2N1 (racemic) [Example 21, 5-Methyl-6-(phenylsulfonyl)-7-(4-(pyrrolidin-1-yl)phenyl)-2-(trifluoromethyl)-4,7-dihydropyrazolo[1,5-a]pyrimidine] | – | 11.1% | – |
| CC1=C(S(=O)(=O)c2ccc(Cl)cc2)C(c2ccccc2)n2nc(C(F)(F)F)cc2N1 (single isomer, unassigned) [Example 35 Isomer 1, 6-(4-Chlorophenylsulfonyl)-5-methyl-7-phenyl-2-(trifluoromethyl)-4,7-dihydropyrazolo[1,5-a]pyrimidine] | – | – | IC50: 277 nM |
| COc1ccc(S(=O)(=O)C2=C(C)Nc3cc(C)nn3C2c2ccc(Cl)c(Cl)c2)cc1 (single isomer, unassigned) [Example 8 Isomer 1, 7-(3,4-Dichlorophenyl)-6-(4-methoxyphenylsulfonyl)-2,5-dimethyl-4,7-dihydropyrazolo[1,5-a]pyrimidine] | – | – | IC50: 23 nM |
| CC1=C(S(=O)(=O)c2ccc(C)cc2)C(c2ccc(Cl)c(Cl)c2)n2nc(C)cc2N1 (single isomer, unassigned) [Example 5 Isomer 2, 7-(3,4-Dichlorophenyl)-2,5-dimethyl-6-tosyl-4,7-dihydropyrazolo[1,5-a]pyrimidine] | – | – | IC50: 131 nM |
| CCCCS(=O)(=O)C1=C(C)Nc2cc(C)nn2C1c1ccc(Cl)c(Cl)c1 (single isomer, unassigned) [Example 18 Isomer 1, 6-(Butylsulfonyl)-7-(3,4-dichlorophenyl)-2,5-dimethyl-4,7-dihydropyrazolo[1,5-a]pyrimidine] | 84.6% | – | – |

More lines, main results first:

| Kv1.5% inhibition | inhibition at 0.3 µM | SMILES | other results |
| --- | --- | --- | --- |
| – | 37% | CC1=C(C(=O)N(C)S(=O)(=O)c2ccccc2)C(c2ccc(Cl)c(Cl)c2)n2nc(C(F)(F)F)cc2N1 (single isomer, unassigned) [Example 90 Isomer 1, 7-(3,4-Dichlorophenyl)-N,5-dimethyl-N-(phenylsulfonyl)-2-(trifluoromethyl)-4,7-dihydropyrazolo[1,5-a]pyrimidine-6-carboxamide] | – |
| 78% | – | CC1=C(S(=O)(=O)N2CCCCC2)C(c2ccc(Cl)c(Cl)c2)n2nc(C(F)(F)F)cc2N1 (single isomer, unassigned) [Example 65 Isomer 2, 7-(3,4-Dichlorophenyl)-5-methyl-6-(piperidin-1-ylsulfonyl)-2-(trifluoromethyl)-4,7-dihydropyrazolo[1,5-a]pyrimidine] | – |
| 52% | – | CCCS(=O)(=O)N(C)C(=O)C1=C(C)Nc2cc(C(F)(F)F)nn2C1c1ccc(Cl)c(Cl)c1 (single isomer, unassigned) [Example 91 Isomer 2, 7-(3,4-Dichlorophenyl)-N,5-dimethyl-N-(propylsulfonyl)-2-(trifluoromethyl)-4,7-dihydropyrazolo[1,5-a]pyrimidine-6-carboxamide] | – |
| 76.5% | – | CC1=C(S(=O)(=O)c2ccccc2)C(c2ccc(Cl)c(F)c2)n2nc(C(F)(F)F)cc2N1 (single isomer, unassigned) [Example 33 Isomer 2, 7-(4-Chloro-3-fluorophenyl)-5-methyl-6-(phenylsulfonyl)-2-(trifluoromethyl)-4,7-dihydropyrazolo[1,5-a]pyrimidine] | – |
| 49% | – | CC1=C(S(=O)(=O)N2CCOCC2)C(c2ccc(Cl)c(Cl)c2)n2nc(C(F)(F)F)cc2N1 (single isomer, unassigned) [Example 66 Isomer 2, 7-(3,4-Dichlorophenyl)-5-methyl-6-(morpholinosulfonyl)-2-(trifluoromethyl)-4,7-dihydropyrazolo[1,5-a]pyrimidine] | – |
| – | 49% | CC1=C(S(=O)(=O)c2ccccc2)C(c2ccc(F)cc2)n2nc(C(F)(F)F)cc2N1 (single isomer, unassigned) [Example 36 Isomer 2, 7-(4-Fluorophenyl)-5-methyl-6-(phenylsulfonyl)-2-(trifluoromethyl)-4,7-dihydropyrazolo[1,5-a]pyrimidine] | – |
| 17.2% | – | CC1=C(S(=O)(=O)NCc2ccccc2)C(c2ccc(Cl)cc2)n2nc(C)cc2N1 (single isomer, unassigned) [Example 55 Isomer 2, N-Benzyl-7-(4-chlorophenyl)-2,5-dimethyl-4,7-dihydropyrazolo[1,5-a]pyrimidine-6-sulfonamide] | – |
| – | 21.3% | CC1=C(S(=O)(=O)c2ccc(Cl)cc2)C(C2CCCCC2)n2nc(C(F)(F)F)cc2N1 (single isomer, unassigned) [Example 44 Isomer 2, 6-(4-Chlorophenylsulfonyl)-7-cyclohexyl-5-methyl-2-(trifluoromethyl)-4,7-dihydropyrazolo[1,5-a]pyrimidine] | – |
| – | 83.6% | CC1=C(S(=O)(=O)c2ccc(Cl)cc2)C(c2ccc(F)cc2)n2nc(C(F)(F)F)cc2N1 (single isomer, unassigned) [Example 43 Isomer 1, 6-(4-Chlorophenylsulfonyl)-7-(4-fluorophenyl)-5-methyl-2-(trifluoromethyl)-4,7-dihydropyrazolo[1,5-a]pyrimidine] | – |
| 54% | – | CC1=C(S(=O)(=O)N2CCCC2)C(c2ccc(Cl)cc2)n2nc(C(F)(F)F)cc2N1 (single isomer, unassigned) [Example 67 Isomer 2, 7-(4-Chlorophenyl)-5-methyl-6-(pyrrolidin-1-ylsulfonyl)-2-(trifluoromethyl)-4,7-dihydropyrazolo[1,5-a]pyrimidine] | – |
